Test results taken from US20260048047A1, “SMALL-MOLECULE ACTIVATORS OF MYCOBACTERIUM TUBERCULOSIS ADENYLYL CYCLASE” (priority 2022, published 2026).

Test system: M. tuberculosis
Assay: Extracellular activity against M. tuberculosis in cholesterol media (Alamar Blue reduction assay)
Format: cell-based, Mycobacterium tuberculosis
Settings: Mycobacterium tuberculosis, 240 h, 7H12-Cholesterol media, 10 days; read-out: Cholesterol broth: alamar blue--EC50

Row | SMILES | EC50
1 | Cc1nonc1CC(=O)N1CCC(c2nc(-c3ccc(Cl)c(Cl)c3)no2)CC1 [Compound 95, 1-(4-(3-(3,4-dichlorophenyl)-1,2,4-oxadiazol-5-yl)piperidin-1-yl)-2-(4-methyl-1,2,5-oxadiazol-3-yl)ethan-1-one] | 64.4 nM
2 | Cc1nonc1CC(=O)N1CCC(O)(c2nc(-c3ccc(Cl)c(Cl)c3)no2)CC1 [Compound 96, 1-(4-(3-(3,4-dichlorophenyl)-1,2,4-oxadiazol-5-yl)-4-hydroxypiperidin-1-yl)-2-(4-methyl-1,2,5-oxadiazol-3-yl)ethan-1-one] | 610 nM
3 | Cc1nonc1CC(=O)N1CCC(n2nnc(-c3ccc(Cl)cc3)n2)CC1 [Compound 97, 1-(4-(5-(4-chlorophenyl)-2H-tetrazol-2-yl)piperidin-1-yl)-2-(4-methyl-1,2,5-oxadiazol-3-yl)ethan-1-one] | 149 nM
4 | Cc1nonc1CC(=O)N1CCC(c2nc(-c3ccc(Cl)cc3)no2)CC1 [Compound 98, 1-(4-(3-(4-chlorophenyl)-1,2,4-oxadiazol-5-yl)piperidin-1-yl)-2-(4-methyl-1,2,5-oxadiazol-3-yl)ethan-1-one] | 114 nM
5 | Cc1nonc1CC(=O)N1CCC(c2nc(-c3cccc(Cl)c3)no2)CC1 [Compound 99, 1-(4-(3-(3-chlorophenyl)-1,2,4-oxadiazol-5-yl)piperidin-1-yl)-2-(4-methyl-1,2,5-oxadiazol-3-yl)ethan-1-one] | 530 nM
6 | Cc1nonc1CC(=O)N1CCC(c2nc(C3CCC(C(F)(F)F)CC3)no2)CC1 (centres unmarked) [Compound 100, 2-(4-methyl-1,2,5-oxadiazol-3-yl)-1-(4-(3-(4-(trifluoromethyl)cyclohexyl)-1,2,4-oxadiazol-5-yl)piperidin-1-yl)ethan-1-one] | 688 nM
7 | Cc1nonc1CC(=O)N1CCC(c2nc(-c3ccc(Cl)c(OC(F)(F)F)c3)no2)CC1 [Compound 101] | 731 nM
8 | Cc1nonc1CC(=O)N1CCC(c2nc(-c3ccc(OC(F)(F)F)cc3)no2)CC1 [Compound 102, 2-(4-methyl-1,2,5-oxadiazol-3-yl)-1-(4-(3-(4-(trifluoromethoxy)phenyl)-1,2,4-oxadiazol-5-yl)piperidin-1-yl)ethan-1-one] | 167 nM
9 | Cc1nonc1CC(=O)N1CCC(c2nc(-c3cccc(OC(F)(F)F)c3)no2)CC1 [Compound 103, 2-(4-methyl-1,2,5-oxadiazol-3-yl)-1-(4-(3-(3-(trifluoromethoxy)phenyl)-1,2,4-oxadiazol-5-yl)piperidin-1-yl)ethan-1-one] | 383 nM
10 | Cc1nonc1CC(=O)N1CCC(c2nc(-c3ccccc3OC(F)(F)F)no2)CC1 [Compound 104, 2-(4-methyl-1,2,5-oxadiazol-3-yl)-1-(4-(3-(2-(trifluoromethoxy)phenyl)-1,2,4-oxadiazol-5-yl)piperidin-1-yl)ethan-1-one] | 2960 nM
11 | Cc1nonc1CC(=O)N1CCC(c2nc(-c3ccc(Cl)c(C(F)(F)F)c3)no2)CC1 [Compound 105, 1-(4-(3-(4-chloro-3-(trifluoromethyl)phenyl)-1,2,4-oxadiazol-5-yl)piperidin-1-yl)-2-(4-methyl-1,2,5-oxadiazol-3-yl)ethan-1-one] | 744 nM
12 | Cc1nonc1CC(=O)N1CCC(c2nc(-c3ccc(C(F)(F)F)cc3)no2)CC1 [Compound 106, 2-(4-methyl-1,2,5-oxadiazol-3-yl)-1-(4-(3-(4-(trifluoromethyl)phenyl)-1,2,4-oxadiazol-5-yl)piperidin-1-yl)ethan-1-one] | 754 nM
13 | Cc1nonc1CC(=O)N1CCC(c2nc(-c3ccc(OC(F)F)cc3)no2)CC1 [Compound 108, 1-(4-(3-(4-(difluoromethoxy)phenyl)-1,2,4-oxadiazol-5-yl)piperidin-1-yl)-2-(4-methyl-1,2,5-oxadiazol-3-yl)ethan-1-one] | 716 nM
14 | Cc1nonc1CC(=O)N1CCC(c2nc(C3CCC(F)(F)C3)no2)CC1 (centres unmarked) [Compound 109, 1-(4-(3-(3,3-difluorocyclopentyl)-1,2,4-oxadiazol-5-yl)piperidin-1-yl)-2-(4-methyl-1,2,5-oxadiazol-3-yl)ethan-1-one] | 3250 nM
